“Also recorded” adds a separate entry of the source.

Here are results for 4 compounds from patent publication US20110257220A1, “3,11 b-cis-Dihydrotetrabenazine for the Treatment of Schizophrenia and Other Psychoses” (CAMBRIDGE LABORATORIES (IRELAND) LIMITED, priority 2005, published 2011).

One data set concerns the target T1, Adrenergic α2A Receptor (Homo sapiens, UniProt P08913).
T1 construct: expressed in transfected cells; host or cells: insect Sf9 cells
T1 sequence (P08913 1-465): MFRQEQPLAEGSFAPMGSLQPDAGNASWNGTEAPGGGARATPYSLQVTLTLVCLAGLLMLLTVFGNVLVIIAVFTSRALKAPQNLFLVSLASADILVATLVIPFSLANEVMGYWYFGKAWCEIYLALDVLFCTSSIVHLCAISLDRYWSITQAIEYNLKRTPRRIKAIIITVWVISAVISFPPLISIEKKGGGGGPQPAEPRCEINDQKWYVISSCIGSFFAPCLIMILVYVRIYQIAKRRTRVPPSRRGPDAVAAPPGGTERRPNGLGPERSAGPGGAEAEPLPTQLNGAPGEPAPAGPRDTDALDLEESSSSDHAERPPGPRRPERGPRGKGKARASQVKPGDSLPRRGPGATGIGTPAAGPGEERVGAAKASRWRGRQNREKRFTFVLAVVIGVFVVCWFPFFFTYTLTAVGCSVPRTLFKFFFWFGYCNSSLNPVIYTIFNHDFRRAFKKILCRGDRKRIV
The data set can be described thus: Adrenergic α2A receptor radioligand binding ([3H] MK-912). The note with it: 10 μM solution; for inhibition at 10 µM: read-out: Percentage Inhibition of Specific Binding, α2A Receptor. As to the method: (§1) The four dihydrotetrabenazine isomers A, B, C and D were subjected to specific binding assays to test their ability to bind to the receptors and transporter proteins described below. The results are set out in Table 5
(a) Adrenergic α2A Receptor:
• Reference: S. Uhlen et al. J. Pharmacol. Exp. Ther., 271:1558-1565 (1994) • Source: Human recombinant insect Sf9 cells • Ligand: 1 nM [^3H]

For a further data set, the target named is T2, Dopamine D2L Receptor (Homo sapiens, UniProt P14416).
T2 construct: expressed in transfected cells; host or cells: CHO cells
T2 sequence (P14416 whole entry): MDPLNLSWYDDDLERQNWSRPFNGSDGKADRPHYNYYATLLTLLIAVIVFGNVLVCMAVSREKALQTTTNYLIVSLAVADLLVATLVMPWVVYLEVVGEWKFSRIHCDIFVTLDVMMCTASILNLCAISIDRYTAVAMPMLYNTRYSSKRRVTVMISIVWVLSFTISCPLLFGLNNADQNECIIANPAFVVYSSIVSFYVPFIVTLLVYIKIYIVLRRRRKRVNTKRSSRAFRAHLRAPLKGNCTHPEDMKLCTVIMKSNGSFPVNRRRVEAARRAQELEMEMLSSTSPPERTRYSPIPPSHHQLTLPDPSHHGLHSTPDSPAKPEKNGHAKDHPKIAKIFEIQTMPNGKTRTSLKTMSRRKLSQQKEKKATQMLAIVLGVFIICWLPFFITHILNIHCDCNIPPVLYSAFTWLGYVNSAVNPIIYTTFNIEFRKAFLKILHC
Nature of the data set: Dopamine D2L receptor radioligand binding ([3H] Spiperone). The note with it: 10 μM solution; for inhibition at 10 µM: read-out: Percentage Inhibition of Specific Binding, D2L Receptor. How it is done:
as §1
(d) Dopamine D2L, Receptor:
• Reference: Bunzo et al., Nature, 336:783-787 (1988) • Source: Human recombinant CHO cells • Ligand: 0.16 nM [3H]

Another data set concerns the target T3, Dopamine D3 Receptor (Homo sapiens, UniProt P35462).
T3 construct: expressed in transfected cells; host or cells: CHO cells
The data set can be described thus: Dopamine D3 receptor radioligand binding ([3H] Spiperone). The note with it: 10 μM solution; for inhibition at 10 µM: read-out: Percentage Inhibition of Specific Binding, D3 Receptor. As to the method: as §1
(e) Dopamine D3 Receptor:
• Reference: Sokoloff et al., Nature, 347:146-151, (1990) • Source: Human recombinant CHO cells • Ligand: 0.7 nM [3H]

Data set [1] has as its target T4, Serotonin Transporter (SERT) (Homo sapiens, UniProt P31645).
T4 construct: expressed in transfected cells; host or cells: HEK-293 cells
The data set can be described thus: Serotonin transporter radioligand binding ([125I] RTI-55). The note with it: for inhibition at 10 µM: read-out: Percentage Inhibition of Specific Binding, SERT. How it is done:
as §1
(i) Serotonin Transporter (SERT):
• Reference: Gu et al., J. Biol. Chem., 269(10):7124-7130, (1994) • Source: Human recombinant HEK-293 cells • Ligand: 0.15 nM [125I] RTI-55 • Vehicle: 1% DMSO • Incubation time/Temp: 3 hours @ 4° C. • Incubation buffer: 100 mM NaCl, 50 mM Tris HCl, 1 μM Leupeptin, 10 μM PMSF, pH 7.4 • Non Specific ligand: 10 μM Imipramine • Kd: 0.17 nM • Bmax: 0.41 pmole/mg protein • Specific binding: 95% • Quantitation method: Radioligand binding • Significance criteria: ≧50% of maximum stimulation or inhibition

Data set [2] deals with female hooded-Lister rats. The data set can be described thus: Novel object recognition (NOR) task, sub-chronic PCP-induced cognitive deficit. Type of data set: in vivo, rat. The source says:
Certain pre-clinical tests allow the observation of relatively subtle cognitive deficits in the rat that resemble cognitive symptoms in subjects with schizophrenia. The cognitive deficits observed are seen in behaviours such as working memory deficits which may be measured by recognition tasks such as the novel object recognition (NOR) paradigm. A recognition memory task allows the comparison between presented stimuli and previously stored information. Ennaceur & Delacour, Behav. Brain Res. 31: 47-59 (1988) described the NOR test in rats which was based on the differential exploration of familiar and new objects. The NOR test is a non-rewarded, ethologically relevant paradigm based on the spontaneous exploratory behaviour of rats which measures working memory. Each session consists of two trials. In the first trial, the rats are exposed to two identical objects in an open field. During the second trial, rats are exposed to two dissimilar objects, one familiar object from the first trial and one new object. Object recognition in rats can be measured as the difference in time spent exploring the familiar and the new object.
The abovementioned rodent model was used to assess the effects of the Isomer A on sub-chronic PCP-induced deficits in working memory using the novel object recognition (NOR) paradigm. The working hypothesis was that both acute and sub-chronic treatment with Isomer A will attenuate the selective working memory deficit induced by sub-chronic PCP as measured in the NOR test paradigm.
Rats are allowed to habituate to the empty test box and the behavioural test room environment for 1 hour on day 1. Prior to behavioural testing on day 2 rats are given a further 3 minutes habituation.
Following the 3 minute habituation period, the rats are given two 3 minute trials (T1 and T2) which are separated by a 1 minute inter-trial interval in the home cage during which the objects are changed.
In this trial, the animals are allowed to explore two identical objects (A1 and A2) for 3 minutes.
In this trial, the animals explore a familiar object (A) from T1 and a novel object (B) for 3 minutes. The familiar object presented during T2 is a duplicate of the object presented in T1 in order to avoid any olfactory trails.
The object exploration is defined by animals licking, sniffing or touching the object with the forepaws whilst sniffing, but not leaning against, turning around, standing or sitting on the object. The exploration time (s) of each object (A1, A2, A and B) in each trial are recorded using two stopwatches and the following factors are calculated: • Total exploration time of both objects in the acquisition trial (s). • Total exploration time of both objects in the retention trial (s). • Habituation of exploratory activity. The LMA includes the exploration time, as measured by the number of lines crossed, for both the trials. • Discrimination index, which is calculated as shown below;
(time spent exploring novel object−time spent exploring familiar object)÷total time spent in exploring the objects
Behaviour in all trials was recorded on video for subsequent blind scoring.
50 female hooded-Lister rats (Harlan, UK) were used as subjects for these studies. Rats were housed in groups of 5 under standard laboratory conditions under a 12 hr light:dark cycle, lights on at 0700 hr. All testing was carried out in the light phase. Food and water were freely provided. […]

T3 sequence (P35462 whole entry): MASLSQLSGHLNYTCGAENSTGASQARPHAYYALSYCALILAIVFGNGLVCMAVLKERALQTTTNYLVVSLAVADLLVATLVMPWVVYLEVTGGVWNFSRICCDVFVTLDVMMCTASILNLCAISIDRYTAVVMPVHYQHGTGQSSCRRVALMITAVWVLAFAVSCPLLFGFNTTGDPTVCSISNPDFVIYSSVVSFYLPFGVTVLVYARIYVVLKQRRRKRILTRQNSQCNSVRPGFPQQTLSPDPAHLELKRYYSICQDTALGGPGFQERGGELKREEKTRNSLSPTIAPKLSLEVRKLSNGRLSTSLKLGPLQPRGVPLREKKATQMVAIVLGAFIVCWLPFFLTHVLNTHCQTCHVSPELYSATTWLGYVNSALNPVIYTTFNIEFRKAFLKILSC
T4 sequence (P31645 whole entry): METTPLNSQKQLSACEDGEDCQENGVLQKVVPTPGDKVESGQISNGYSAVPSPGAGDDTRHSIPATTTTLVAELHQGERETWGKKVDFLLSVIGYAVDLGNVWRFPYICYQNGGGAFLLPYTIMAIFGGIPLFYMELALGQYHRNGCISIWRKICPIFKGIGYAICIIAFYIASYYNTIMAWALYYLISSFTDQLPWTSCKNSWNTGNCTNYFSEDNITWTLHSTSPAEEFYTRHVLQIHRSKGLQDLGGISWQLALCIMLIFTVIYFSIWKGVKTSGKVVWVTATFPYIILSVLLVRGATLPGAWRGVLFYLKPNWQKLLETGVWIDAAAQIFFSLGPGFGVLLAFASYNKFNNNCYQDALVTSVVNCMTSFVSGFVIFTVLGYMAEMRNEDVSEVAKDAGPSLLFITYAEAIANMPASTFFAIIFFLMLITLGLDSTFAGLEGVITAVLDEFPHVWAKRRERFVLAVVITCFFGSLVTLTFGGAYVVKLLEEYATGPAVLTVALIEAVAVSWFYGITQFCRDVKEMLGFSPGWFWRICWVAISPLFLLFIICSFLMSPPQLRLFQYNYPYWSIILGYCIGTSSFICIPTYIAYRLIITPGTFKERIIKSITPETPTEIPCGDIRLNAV

With `COc1cc2c(cc1OC)C1CC(O)C(CC(C)C)CN1CC2` (single isomer, unassigned) [Isomer C], the inhibition (commonly the drop in the measured response relative to a control, in per cent) at 10 µM at Adrenergic α2A Receptor was 13%; on Dopamine D2L Receptor, -14%; at Dopamine D3 Receptor, 9%; in data set [1] (10 μM solution) it was 77%. Also, the half-inhibitory concentration (IC50) (as a rule, the concentration that inhibits the measured activity by half) in data set [1] (value in parentheses, unit inferred) amounted to 2750 nM.

`COc1cc2c(cc1OC)[C@H]1C[C@H](O)[C@@H](CC(C)C)CN1CC2` (single isomer, unassigned) [Isomer B]: the inhibition at 10 µM came to 12% on Adrenergic α2A Receptor, 16% on Dopamine D2L Receptor, 7% on Dopamine D3 Receptor and 86% in data set [1] (10 μM solution).

`COc1cc2c(cc1OC)[C@@H]1C[C@@H](O)[C@H](CC(C)C)CN1CC2` (single isomer, unassigned) [Isomer A]: the inhibition at 10 µM was determined as 86% on Adrenergic α2A Receptor, 87% on Dopamine D2L Receptor, 69% at Dopamine D3 Receptor and 19% in data set [1] (10 μM solution). In data set [2] (30 mg/kg Isomer A p.o., rats in NOR arena), the “Sedation (observation of behaviour)” value is recorded as “did not appear sedated”. Also, the “Locomotor activity in the test arena (number of lines crossed, T1+T2)” value in data set [2] (30 mg/kg Isomer A p.o., sub-chronic PCP rats, FIG. 4) is listed as “significant effect to reduce locomotor activity”. Moreover, in data set [2] (Isomer A 3-30 mg/kg p.o. acute, 30 min before test, sub-chronic PCP 2 mg/kg i.p. twice daily 7 days, FIG. 2), the “Attenuation of sub-chronic PCP-induced deficit, retention phase (exploration time of familiar vs novel object)” value is “has efficacy to attenuate the sub-chronic PCP-induced deficit; also recorded: significant at the highest dose”. Besides, the “Exploration of two identical objects in the acquisition phase (T1)” value in data set [2] (Isomer A 3-30 mg/kg p.o., sub-chronic PCP rats, FIG. 1) is given as “no effect”.

Regarding `COc1cc2c(cc1OC)[C@H]1C[C@@H](O)[C@H](CC(C)C)CN1CC2` (single isomer, unassigned; isomer d) [Isomer D], at Adrenergic α2A Receptor, the “Percentage Inhibition of Specific Binding, α2A Receptor” value is on record as 87%. Also, the “Percentage Inhibition of Specific Binding, D2L Receptor” value at Dopamine D2L Receptor is 58%. For the same compound, the “Percentage Inhibition of Specific Binding, D3 Receptor” value on Dopamine D3 Receptor was determined as 63%. Further, the “Percentage Inhibition of Specific Binding, SERT” value in data set [1] (10 μM solution) came to 8%.
